Results taken from PubChem BioAssay AID248 (DTP/NCI, 2004).
Where “and” joins values, the source holds several entries; their conditions need not be identical. Equal entries are not always repeated. Toxic doses and inconclusive results are not listed. No stated cut-off is given here; in the data, active means T/C of 150% or more; inactive means T/C below 125%.

Test system: L1210 leukemia ip in BDF1 mice, survival T/C
Assay: NCI In Vivo Anticancer Drug Screen. Data for tumor model L1210 Leukemia (intraperitoneal) in B6D2F1 (BDF1) mice
Settings: endpoint: mean survival time, higher = longer survival
Summary of the method: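 Antitumor effect is assessed in tumor-bearing animals. Survival in the compound arm is compared with a vehicle-dosed control arm and expressed as their quotient.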

[1] = dose: 100.0 mg/kg/injection, schedule: Q01DX001 (ip), vehicle: saline
[2] = dose: 200.0 mg/kg/injection, schedule: Q01DX001 (ip), vehicle: saline
[3] = dose: 400.0 mg/kg/injection, schedule: Q01DX001 (ip), vehicle: saline
[4] = dose: 100.0 mg/kg/injection, schedule: Q04DX002 (ip), vehicle: saline with Tween-80
[5] = dose: 200.0 mg/kg/injection, schedule: Q04DX002 (ip), vehicle: saline with Tween-80
[6] = dose: 400.0 mg/kg/injection, schedule: Q04DX002 (ip), vehicle: saline with Tween-80
[7] = dose: 100.0 mg/kg/injection, schedule: Q01DX009 (ip), vehicle: Klucel (hydroxypropylcellulose) (HPC)
[8] = dose: 100.0 mg/kg/injection, schedule: Q04DX003 (ip), vehicle: Klucel (hydroxypropylcellulose) (HPC)
[9] = dose: 200.0 mg/kg/injection, schedule: Q01DX009 (ip), vehicle: Klucel (hydroxypropylcellulose) (HPC)
[10] = dose: 200.0 mg/kg/injection, schedule: Q04DX003 (ip), vehicle: Klucel (hydroxypropylcellulose) (HPC)
[11] = dose: 400.0 mg/kg/injection, schedule: Q01DX009 (ip), vehicle: Klucel (hydroxypropylcellulose) (HPC)
[12] = dose: 400.0 mg/kg/injection, schedule: Q04DX003 (ip), vehicle: Klucel (hydroxypropylcellulose) (HPC)
[13] = dose: 75.0 mg/kg/injection, schedule: Q04DX003 (ip), vehicle: saline
[14] = dose: 300.0 mg/kg/injection, schedule: Q04DX003 (ip), vehicle: saline
[15] = dose: 100.0 mg/kg/injection, schedule: Q01DX009 (ip), vehicle: saline with Tween-80
[16] = dose: 100.0 mg/kg/injection, schedule: Q04DX003 (ip), vehicle: saline with Tween-80
[17] = dose: 200.0 mg/kg/injection, schedule: Q01DX009 (ip), vehicle: saline with Tween-80
[18] = dose: 200.0 mg/kg/injection, schedule: Q04DX003 (ip), vehicle: saline with Tween-80
[19] = dose: 400.0 mg/kg/injection, schedule: Q04DX003 (ip), vehicle: saline with Tween-80
[20] = dose: 400.0 mg/kg/injection, schedule: Q01DX009 (ip), vehicle: saline with Tween-80

Measured: T/C

NC(=O)c1ccc[n+](CCF)c1
inactive: [1] 98 % of control | [2] 98 % of control | [3] 104 % of control

C[N+](C)(CCCCCCCCCC[N+](C)(C)Cc1ccccc1)Cc1ccccc1
inactive: dose: 1.5 mg/kg/injection, schedule: Q01DX009 (ip), vehicle: saline 106 % of control | dose: 1.5 mg/kg/injection, schedule: Q04DX003 (ip), vehicle: saline 95 % of control | dose: 3.0 mg/kg/injection, schedule: Q01DX009 (ip), vehicle: saline 101 % of control | dose: 3.0 mg/kg/injection, schedule: Q04DX003 (ip), vehicle: saline 97 % of control | dose: 6.0 mg/kg/injection, schedule: Q01DX009 (ip), vehicle: saline 93 % of control | dose: 6.0 mg/kg/injection, schedule: Q04DX003 (ip), vehicle: saline 95 % of control

COC(=O)c1oc2cc(Cl)cnc2c1C(=O)OC
inactive: [4] 97 % of control | [5] 97 % of control | [6] 94 % of control

CC(=O)Nc1ccc(C=Nc2ccc3c(c2)Cc2ccccc2-3)cc1
inactive: [7] 91 % of control | [8] 94 % of control | [9] 87 % of control | [10] 90 % of control | [11] 86 % of control | [12] 89 % of control

CN(C)C(=S)[S][Sb]([S]C(=S)N(C)C)[c]1ccccc1
inactive: dose: 100.0 mg/kg/injection, schedule: Q01DX001 (ip), vehicle: steriod suspending solution 96 % of control | dose: 200.0 mg/kg/injection, schedule: Q01DX001 (ip), vehicle: steriod suspending solution 96 % of control

O=C(/C=C\c1ccccc1)N1CCc2ccccc2C1
inactive: [13] 100 % of control | [14] 101 % of control

CCC[N+]1=C(/C=C/c2ccc3cccnc3c2O)C(C)(C)c2ccccc21
inactive: dose: 100.0 mg/kg/injection, schedule: Q01DX001 (ip), vehicle: carboxymethylcellulose (CMC) 95 % of control | dose: 200.0 mg/kg/injection, schedule: Q01DX001 (ip), vehicle: carboxymethylcellulose (CMC) 98 % of control | dose: 400.0 mg/kg/injection, schedule: Q01DX001 (ip), vehicle: carboxymethylcellulose (CMC) 93 % of control

CCN(CC)N=Nc1ccccc1-c1nc(N)c2ccccc2n1
inactive: [8] 95 % of control | [10] 98 % of control

CN(C)C(=O)c1ccccc1Cl
inactive: dose: 100.0 mg/kg/injection, schedule: Q04DX003 (ip), vehicle: acetone 92 % of control | dose: 200.0 mg/kg/injection, schedule: Q04DX003 (ip), vehicle: acetone 94 % of control | dose: 400.0 mg/kg/injection, schedule: Q04DX003 (ip), vehicle: acetone 105 % of control

CCCCCCCCCCCCOC(=O)OCCCCCCCCCCCC
inactive: [15] 91 % of control | [16] 97 % of control | [17] 91 % of control | [18] 101 % of control | [19] 101 % of control

O=C(Cc1ccc([N+](=O)[O-])cc1)c1ccccc1
inactive: dose: 100.0 mg/kg/injection, schedule: Q01DX001 (ip), vehicle: Klucel (hydroxypropylcellulose) (HPC) 95 % of control | [7] 102 % of control | dose: 100.0 mg/kg/injection, schedule: Q01DX009 (ip), vehicle: saline 108 % of control | [8] 97 % of control | dose: 200.0 mg/kg/injection, schedule: Q01DX001 (ip), vehicle: Klucel (hydroxypropylcellulose) (HPC) 88 % of control | [9] 103 % of control | dose: 200.0 mg/kg/injection, schedule: Q01DX009 (ip), vehicle: saline 102 % of control | [10] 97 % of control | dose: 400.0 mg/kg/injection, schedule: Q01DX001 (ip), vehicle: Klucel (hydroxypropylcellulose) (HPC) 90 % of control | [11] 94 % of control | dose: 400.0 mg/kg/injection, schedule: Q01DX009 (ip), vehicle: saline 97 % of control | [12] 101 % of control

Cn1c2c(c(=O)n(C)c1=O)C(C(=O)O)CC(=O)N2 (stereo not drawn)
inactive: [7] 103 % of control | [8] 103 % of control | [9] 102 % of control | [10] 102 % of control | [11] 100 % of control | [12] 110 % of control

Nc1cc(S(=O)(=O)c2ccc(O)c(N)c2)ccc1O
inactive: [15] 105 % of control | [16] 103 % of control | [17] 107 % of control | [18] 104 % of control | [20] 109 % of control | [19] 97 % of control

COC(c1ccccc1)C(OC)c1ccccc1 (stereo not drawn)
inactive: dose: 50.0 mg/kg/injection, schedule: Q04DX003 (ip), vehicle: Klucel (hydroxypropylcellulose) (HPC) 96 % of control | [1] 109 % of control | [8] 98 % of control | [2] 94 % of control | [10] 98 % of control | [3] 103 % of control

C[N+](C)(C)c1ccc(F)c([N+](=O)[O-])c1
inactive: dose: 50.0 mg/kg/injection, schedule: Q01DX005 (ip), vehicle: Klucel (hydroxypropylcellulose) (HPC) 95 % of control | dose: 50.0 mg/kg/injection, schedule: Q01DX009 (ip), vehicle: Klucel (hydroxypropylcellulose) (HPC) 96 % of control | dose: 100.0 mg/kg/injection, schedule: Q01DX005 (ip), vehicle: Klucel (hydroxypropylcellulose) (HPC) 98 % of control | [7] 96 % of control | dose: 100.0 mg/kg/injection, schedule: Q04DX002 (ip), vehicle: Klucel (hydroxypropylcellulose) (HPC) 90 % of control | dose: 200.0 mg/kg/injection, schedule: Q01DX005 (ip), vehicle: Klucel (hydroxypropylcellulose) (HPC) 103 % of control | [9] 96 % of control | dose: 200.0 mg/kg/injection, schedule: Q04DX002 (ip), vehicle: Klucel (hydroxypropylcellulose) (HPC) 96 % of control

Cc1ccccc1NC(=O)Nc1ccccc1F
inactive: [7] 99 % of control | [8] 96 % of control | [9] 99 % of control | [10] 103 % of control | [11] 104 % of control | [12] 110 % of control

Cc1ccc(C)c(NC(=O)NCCN(C)c2ccccc2)c1
inactive: dose: 100.0 mg/kg/injection, schedule: Q01DX001 (ip), vehicle: saline with Tween-80 96 % of control | [15] 87 % of control | [4] 89 % of control and 91 % of control | dose: 200.0 mg/kg/injection, schedule: Q01DX001 (ip), vehicle: saline with Tween-80 93 % of control | [17] 89 % of control | [5] 89 % of control and 91 % of control | dose: 400.0 mg/kg/injection, schedule: Q01DX001 (ip), vehicle: saline with Tween-80 92 % of control | [20] 101 % of control | [6] 89 % of control and 91 % of control

CCNC(=O)NC(CSCSC)C(=O)OC (stereo not drawn)
inactive: [15] 98 % of control | [16] 104 % of control | [17] 105 % of control | [18] 105 % of control | [20] 96 % of control | [19] 102 % of control

C[N+]1(C)C2CCCC1CC(=O)C2
inactive: dose: 150.0 mg/kg/injection, schedule: Q01DX001 (ip), vehicle: saline 107 % of control

CN(C)CCCCC(C#N)(c1ccccc1)c1ccccc1
inactive: dose: 15.0 mg/kg/injection, schedule: Q01DX001 (ip), vehicle: saline 88 % of control | dose: 30.0 mg/kg/injection, schedule: Q01DX001 (ip), vehicle: saline 92 % of control

CCOC(=O)C(C(=O)OCC)C(=O)OCC
inactive: [1] 102 % of control | [2] 102 % of control | [3] 105 % of control

O=P(c1ccccc1)(N1CCOCC1)N1CCOCC1
inactive: [13] 94 % of control | dose: 150.0 mg/kg/injection, schedule: Q04DX003 (ip), vehicle: saline 104 % of control | [14] 110 % of control
